According to the supplement of paper PMC4862054:
“And” between values parts separate entries of the source, which are not always exact repeats. Equal entries are not always repeated.

Experiments:
[1] = system: MDA-MB-468; settings: 72 h
Outline: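 Two sequential readouts followed a 72 h incubation of breast cancer cell lines with compound at 5 concentrations in 10-fold steps over a compound-specific 10,000-fold range: CellTox Green fluorescence (485/520 nm) for cell death, then CellTiter-Glo luminescence, after 10 min at room temperature, for viability. Each plate was normalised to 0.1 % DMSO and a positive kill control. Dose-response curves were fitted for EC50, censored at the top concentration.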

[2] = system: CAL-120; assay: normalised viability (% of control), CellTiter-Blue; higher = more viable cells (about 100 = DMSO control); settings: incubation time: 72 h
Outline: (§1)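 Breast cancer cell lines in 20 µl suspension were seeded onto 384-well plates pre-loaded with compound dissolved in 5 µl medium, then incubated 72 h. CellTiter-Blue reagent (2.5 µl) was added for 2 h at 37 °C and fluorescence read at 560/590 nm. Each plate was normalised to vehicle (100) and a positive kill control (0), with Z'-factor quality control. The value is normalised viability at one listed concentration of the series.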

[3] = system: CAL-148; assay: as above; settings: incubation time: 72 h
Outline: as §1

[4] = system: CAL-85-1; assay: as above; settings: incubation time: 72 h
Outline: as §1

[5] = system: DU-4475; assay: as above; settings: incubation time: 72 h
Outline: as §1

[6] = system: HCC1143; assay: as above; settings: incubation time: 72 h
Outline: as §1

[7] = system: HCC1599; assay: as above; settings: incubation time: 72 h
Outline: as §1

[8] = system: HCC1937; assay: as above; settings: incubation time: 72 h
Outline: as §1

[9] = system: HDQ-P1; assay: as above; settings: incubation time: 72 h
Outline: as §1

[10] = system: Hs578T; assay: as above; settings: incubation time: 72 h
Outline: as §1

[11] = system: MDA-MB-231; assay: as above; settings: incubation time: 72 h
Outline: as §1

[12] = system: MDA-MB-436; assay: as above; settings: incubation time: 72 h
Outline: as §1

[13] = system: MDA-MB-453; assay: as above; settings: incubation time: 72 h
Outline: as §1

[14] = system: MDA-MB-468; assay: as above; settings: incubation time: 72 h
Outline: as §1

[15] = system: SK-BR-3; assay: as above; settings: incubation time: 72 h
Outline: as §1

[16] = system: CAL-85-1; assay: drug sensitivity score (DSS), CellTox Green (DSS (AUC-based score)); higher = stronger drug effect (viability inhibition or cytotoxicity); extreme values may be limits of the assay; settings: incubation time: 72 h
Outline: (§2)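 In 384-well plates, compound was laid out at 5 concentrations in 10-fold steps over a 10,000-fold range specific to each compound, and breast cancer cell lines were seeded on top in 20 µl suspension for a 72 h incubation. CellTox Green fluorescence and then CellTiter-Glo luminescence were read, and each plate was normalised to 0.1 % DMSO and a positive kill control. The drug sensitivity score was calculated from the area under the fitted dose-response curve.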

[17] = system: HCC1599; assay: as above; settings: incubation time: 72 h
Outline: as §2

[18] = system: HCC1937; assay: as above; settings: incubation time: 72 h
Outline: as §2

[19] = system: MCF-10A; assay: as above; settings: incubation time: 72 h
Outline: as §2

[20] = system: MDA-MB-231; assay: as above; settings: incubation time: 72 h
Outline: as §2

[21] = system: MDA-MB-436; assay: as above; settings: incubation time: 72 h
Outline: as §2

[22] = system: MDA-MB-468; assay: as above; settings: incubation time: 72 h
Outline: as §2

[23] = system: MFM-223; assay: as above; settings: incubation time: 72 h
Outline: as §2

Cc1[nH]c2ccccc2c1CCNCc1ccc(/C=C/C(=O)NO)cc1 [Panobinostat]
Settings	EC50, CellTiter-Glo [nM]	drug sensitivity score
[1]	39	–
[16]	–	17.3
[17]	–	4.47
[18]	–	14.2
[19]	–	1.6
[20]	–	19.9
[21]	–	0
[22]	–	10
[23]	–	6.53

normalised viability [%]
Settings	0.3 nM	1 nM	3 nM	10 nM	100 nM	1000 nM
[2]	–	109	–	–	9.65	3.59
[3]	96.5	–	104	59.4	–	–
[4]	98	–	88.3	81.4	–	–
[5]	112	–	92.4	81.6	–	–
[6]	–	102	–	–	20.7	12.2
[7]	–	99.7	–	–	23	16.3
[8]	–	110	–	–	26.2	15.1
[9]	120	–	115	93.1	–	–
[10]	–	152	–	–	13.8	5.54
[11]	–	120	–	–	13.3	7.26
[12]	–	110	–	–	59.1	17
[13]	121	–	64.3	22.7	–	–
[14]	–	108	–	–	52.2	16.7
[15]	–	96.9	–	–	5.41	3.54

NC(=O)c1ccc(I)c([N+](=O)[O-])c1 [Iniparib]
Settings	EC50, CellTiter-Glo [nM]	drug sensitivity score
[1]	230	–
[16]	–	0
[17]	–	0
[18]	–	0
[19]	–	1.4
[20]	–	0
[21]	–	0
[22]	–	0
[23]	–	0

normalised viability [%]
Settings	3 nM	10 nM	30 nM	100 nM	1000 nM	10000 nM
[2]	–	87.3	–	–	98.6	72.7
[3]	85.6	–	92.8	90.2	–	–
[4]	91.5	–	83.8	89.5	–	–
[5]	84.1	–	73.9	98.8	–	–
[6]	–	93.6	–	–	102	91.3
[7]	–	88.3	–	–	88.3	89.8
[8]	–	86	–	–	97.4	97.6
[9]	99.3	–	104	111	–	–
[10]	–	115	–	–	108	109
[11]	–	88.1	–	–	89.6	111
[12]	–	104	–	–	116	109
[13]	91.7	–	94.7	99.9	–	–
[14]	–	97.9	–	–	107	91.6
[15]	–	89.7	–	–	104	91.5

COCC[n+]1c2c(n(Cc3cnccn3)c1C)C(=O)c1ccccc1C2=O [YM155]
Settings	EC50, CellTiter-Glo [nM]	drug sensitivity score
[1]	3.73	–
[16]	–	42.2
[17]	–	11.8
[18]	–	29.5
[19]	–	34.7
[20]	–	30.1
[21]	–	27.2
[22]	–	37.3
[23]	–	11.4

normalised viability [%]
Settings	3 nM	10 nM	30 nM	100 nM	1000 nM	10000 nM
[2]	–	9.27	–	–	2.84	3.14
[3]	98.3	–	1.65	1.83	–	–
[4]	90.3	–	3.33	1.96	–	–
[5]	124	–	95.8	57.8	–	–
[6]	–	83.8	–	–	3.34	2.44
[7]	–	62.8	–	–	3.16	2.97
[8]	–	25	–	–	0.8	2.31
[9]	80.4	–	16.8	0.96	–	–
[10]	–	84.8	–	–	19.6	-0.04
[11]	–	14.7	–	–	1.23	2.19
[12]	–	34.5	–	–	0.04	0.01
[13]	70.7	–	18.7	18.2	–	–
[14]	–	12.8	–	–	0.21	0.26
[15]	–	44.3	–	–	0.33	0.6

COc1cc2ncnc(Nc3ccc(F)c(Cl)c3)c2cc1OCCCN1CCOCC1 [Gefitinib]
Settings	EC50, CellTiter-Glo [nM]	drug sensitivity score
[1]	2800	–
[16]	–	4.48
[17]	–	0
[18]	–	0
[19]	–	0
[20]	–	0.542
[21]	–	0
[22]	–	0
[23]	–	0

Settings	normalised viability
[2], 10 nM	76.8% and 88.1%
[2], 1000 nM	76% and 85.9%
[2], 10000 nM	60% and 62.1%
[3], 3 nM	83% and 87.9%
[3], 30 nM	96.2% and 85.9%
[3], 100 nM	94.4% and 90.2%
[4], 3 nM	90.7% and 85.5%
[4], 30 nM	84.7% and 89.6%
[4], 100 nM	88.5% and 85.5%
[5], 3 nM	89.8% and 92.1%
[5], 30 nM	85.6% and 75.6%
[5], 100 nM	99.3% and 83.1%
[6], 10 nM	65.4% and 86.2%
[6], 1000 nM	64.3% and 84.5%
[6], 10000 nM	68.2% and 68.7%
[7], 10 nM	90.8% and 106%
[7], 1000 nM	75.2% and 81.4%
[7], 10000 nM	64.6% and 70.1%
[8], 1000 nM	101% and 100%
[8], 10000 nM	61.1% and 79.5%
[9], 3 nM	88.5% and 105%
[9], 30 nM	87% and 110%
[9], 100 nM	91% and 109%
[10], 10 nM	100% and 105%
[10], 1000 nM	91.4% and 112%
[10], 10000 nM	77.4% and 74.4%
[11], 10 nM	83.8% and 98.3%
[11], 1000 nM	94.6% and 114%
[11], 10000 nM	81.1% and 77%
[12], 10 nM	90.6% and 82.3%
[12], 1000 nM	88.3% and 81.4%
[12], 10000 nM	69.9% and 62%
[13], 3 nM	113% and 111%
[13], 30 nM	85.4% and 90.8%
[13], 100 nM	88.2% and 89.2%
[14], 10 nM	97.6% and 107%
[14], 1000 nM	57.8% and 65.9%
[14], 10000 nM	38.7% and 38.4%
[15], 10 nM	88.1% and 97.7%
[15], 1000 nM	67.2%
[15], 10000 nM	20.8% and 20.5%
